Source: patent US6472401B2, “Methods for the treatment of vascular disorders” (Schering Corporation, priority 1999, dated 2002)
Where two headings read alike, the source gives them in different places.

Columns and labels:
[1] = Administration of antihistamine to patients suffering from clinical depression (Example 2); conditions: for recurrence of symptoms of depression: patients known to have suffered from depression, not currently experiencing symptoms, administered indefinitely; for reduction of symptoms of depression: patients suffering from depression; for recurrence or worsening of symptoms of depression: responders continue treatment at their respective dosage level
Method: Patients suffering from clinical depression are administered a non-sedating antihistamine (loratadine) or a low-sedating antihistamine (cetirizine) to relieve the symptoms of depression. Six treatment groups are contemplated.

[2] = for recurrence of symptoms of depression: administered indefinitely
[3] = patients known to have suffered from depression and subject to allergic rhinitis, no current symptoms of either
[4] = patients known to have suffered from depression and suffering from allergic rhinitis, no current depression symptoms
[5] = patients suffering from depression and allergic rhinitis
[6] = patients suffering from depression, subject to allergic rhinitis but not currently suffering from it
[7] = responders subject to allergic rhinitis but without current rhinitis symptoms continue treatment at their respective dosage level
[8] = responders suffering from allergic rhinitis continue treatment at their respective dosage level

O=C(O)COCCN1CCN(C(c2ccccc2)c2ccc(Cl)cc2)CC1 (stereo not drawn) [cetirizine]
recurrence of symptoms of depression [1]: a significant number of patients do not experience recurrence of symptoms of depression | reduction of symptoms of depression [1]: A significant number of patients experience a reduction of their symptoms of depression | recurrence or worsening of symptoms of depression [1]: a significant number of patients do not experience recurrence or worsening of symptoms of depression | recurrence of symptoms of depression [2, 3]: a significant number of patients do not experience recurrence of symptoms of depression | recurrence of symptoms of depression [2, 4]: a significant number of patients do not experience recurrence of symptoms of depression | reduction of symptoms of depression [2, 5]: A significant number of patients experience a reduction of their symptoms of depression | reduction of symptoms of depression [2, 6]: A significant number of patients experience a reduction of their symptoms of depression | recurrence or worsening of symptoms of depression [2, 7]: a significant number of patients do not experience recurrence or worsening of symptoms of depression | recurrence or worsening of symptoms of depression [2, 8]: a significant number of patients do not experience recurrence or worsening of symptoms of depression

CCOC(=O)N1CCC(=C2c3ccc(Cl)cc3CCc3cccnc32)CC1 [loratadine]
recurrence of symptoms of depression [1]: a significant number of patients do not experience recurrence of symptoms of depression | reduction of symptoms of depression [1]: A significant number of patients experience a reduction of their symptoms of depression | recurrence or worsening of symptoms of depression [1]: a significant number of patients do not experience recurrence or worsening of symptoms of depression | recurrence of symptoms of depression [2, 3]: a significant number of patients do not experience recurrence of symptoms of depression | recurrence of symptoms of depression [2, 4]: a significant number of patients do not experience recurrence of symptoms of depression | reduction of symptoms of depression [2, 5]: A significant number of patients experience a reduction of their symptoms of depression | reduction of symptoms of depression [2, 6]: A significant number of patients experience a reduction of their symptoms of depression | recurrence or worsening of symptoms of depression [2, 7]: a significant number of patients do not experience recurrence or worsening of symptoms of depression | recurrence or worsening of symptoms of depression [2, 8]: a significant number of patients do not experience recurrence or worsening of symptoms of depression
